{
  "source": "patent US20060228388A1",
  "about": "“Method for controlling an insect species using a synthetic trail pheromone mimic” (priority 2005, published 2006)",
  "key": {"tent caterpillars": {"tested_on": "tent caterpillars", "assay": "Threshold sensitivity to a narrow line of compound on a paper card", "format": "in vivo, Malacosoma spp.", "details": "compound laid out in a narrow line on a paper card", "procedure": "(§1) The threshold sensitivity of tent caterpillars to 5β-cholestan-3-one laid out in a narrow line on a paper card was determined to be approximately 10^−11 g/mm. Field tests were conducted by using the compound to form artificial trails that intersected well established, authentic trunk trails of colonies of 3rd-5th instar ETCs. In 19 of 23 replicates of these tests, each involving a different colony, colonies abandoned their authentic trail systems and followed the pathways marked with 5β-cholestan-3-one. […] Other studies indicate that the authentic trail pheromone of the tent caterpillar (Malacosoma spp.) may differ subtly from 5β-cholestan-3-one. Thus, 5β-cholestan-3-one is best considered an analog, or pheromone mimic of the authentic tent caterpillar pheromone."}, "[1]": {"tested_on": "colonies of 3rd-5th instar ETCs", "assay": "Field test: artificial trails intersecting authentic trunk trails of colonies", "format": "in vivo, Malacosoma americanum", "procedure": "as §1"}, "[2]": {"tested_on": "eastern tent caterpillar colonies", "assay": "Field colony disruption by blanket spraying trees with pheromone-mimic", "format": "in vivo, Malacosoma americanum", "procedure": "(§2) Three experiments were conducted, all employing the following protocol. Trees in the experimental plot were divided into two groups. Trees in one group were sprayed with a 1 part per million (ppm) pheromone-mimic formulation and trees in another group were sprayed with a control solution identical to the pheromone mimic formulation except that it lacked the pheromone-mimic. Egg masses were attached to each tree and the fate of the colonies determined by observation.\n(§3) In the second experiment, ten control colonies of the eastern tent caterpillar on apple trees survived and thrived while all of ten colonies on treated trees were destroyed within one week. […] While the exact fate of caterpillars on the treated trees is unknown, they most likely succumbed to a combination of weather related factors, starvation, predation, and falls from the trees."}, "[3]": {"tested_on": "forest tent caterpillar colonies", "assay": "Field colony disruption by blanket spraying trees with pheromone-mimic", "format": "in vivo, Malacosoma disstria", "details": "third experiment; ash trees; 1 ppm spray; within one week", "procedure": "as §2, §3"}},
  "data": [
    {"smiles": "CC(C)CCC[C@@H](C)[C@H]1CC[C@H]2[C@@H]3CC[C@@H]4CC(=O)CC[C@]4(C)[C@H]3CC[C@]12C", "note": "[5β-cholestan-3-one]", "values": [
      {"measurement": "threshold sensitivity of tent caterpillars", "setting": "tent caterpillars", "result": "approximately 10^−11 g/mm"},
      {"measurement": "replicates in which colonies abandoned their authentic trail systems and followed the marked pathways", "setting": "[1]; field, each replicate a different colony of 3rd-5th instar ETCs", "result": "19 of 23"},
      {"measurement": "competitiveness with authentic recruitment trails of the caterpillar", "setting": "[1]; in vivo", "result": "fully competitive"},
      {"measurement": "fate of the remaining treated colonies", "setting": "[2]; first experiment, cherry trees, 1 ppm spray, three remaining colonies", "result": "eventually died out"},
      {"measurement": "treated colonies completely destroyed", "setting": "[2]; first experiment, cherry trees, 1 ppm spray, within several days", "result": "seven of ten"},
      {"measurement": "colonies on treated trees destroyed", "setting": "[2]; second experiment, apple trees, 1 ppm spray, within one week", "result": "all of ten"},
      {"measurement": "disrupting the communicative system of the ETC", "setting": "[2]; solution containing 1 ppm", "result": "effective"},
      {"measurement": "colonies on treated trees perished", "setting": "[3]", "result": "all of fifteen"}
    ]}
  ]
}
